The test concerns the target 4-hydroxyphenylpyruvate dioxygenase (Sus scrofa, UniProt Q02110). The test is described as follows: In vitro inhibitory concentration required against 4-hydroxyphenylpyruvate dioxygenase (4-HPPD) taken from pig liver.

4-hydroxyphenylpyruvate dioxygenase, sequence (Q02110 whole entry): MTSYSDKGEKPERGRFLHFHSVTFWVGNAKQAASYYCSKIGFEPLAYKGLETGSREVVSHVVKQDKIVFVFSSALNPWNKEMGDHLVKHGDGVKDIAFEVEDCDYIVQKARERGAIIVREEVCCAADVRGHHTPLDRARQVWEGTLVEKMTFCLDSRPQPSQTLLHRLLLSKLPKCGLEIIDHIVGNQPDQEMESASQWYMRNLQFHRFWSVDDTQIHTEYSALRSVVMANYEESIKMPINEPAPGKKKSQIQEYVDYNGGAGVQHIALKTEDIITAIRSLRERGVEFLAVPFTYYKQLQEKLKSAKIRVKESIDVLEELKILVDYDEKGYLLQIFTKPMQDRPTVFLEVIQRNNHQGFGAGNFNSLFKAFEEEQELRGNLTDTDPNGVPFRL

For the compound `CCOC(=O)C1CC(=O)C(C(=O)C2CC2)=C(NC(=O)C2CC2)C1` (stereo unspecified), the IC50 (usually the concentration at which inhibition is half-maximal) amounted to 10 µM. This lies in the double-digit micromolar range.
